Experimental findings from patent publication US20240391931A1 (Bristol-Myers Squibb Company, priority 2021, published 2024) are described below.

Assay [1] deals with T1, HER2 WT (Homo sapiens, UniProt P04626).
T1 construct: purchased ProQinase, Freiburg, Germany ERBB2 0108-0000-1
Nature of the assay: Enzymatic assay HER2 WT (method a). It counts as biochemical. Particulars: [HER2 WT]=12.5 nM, [ATP]=25 μM, [Peptide 22]=1 μM. The method in brief: (§1)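 Initial rates over 0–3600 s, read as substrate-to-product conversion by capillary electrophoresis, were converted to percent inhibition and fitted with a variable-slope curve to give IC50. Conditions: EGFR WT 2 nM with 1 mM ATP; HER2 YVMA 5 nM or HER2 WT 12.5 nM, each with 25 μM ATP. All used 1 μM Peptide 22 in pH 7.5 HEPES/Mn/Mg buffer.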

Assay [2] addresses T2, HER2 wildtype (WT) protein (Homo sapiens, UniProt P04626).
T2 construct: BT474 and N87 cell lines which endogenously overexpress the HER2 wildtype (WT) protein; endogenous in cells; host or cells: BT474, N87
Briefly: HER2 signaling (pHER2 Tyr1248/total HER2 MSD) in BT474 cells. It counts as cell-based. Particulars: 1.5 hr compound, 1% FBS. The method in brief:
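BT474, N87 (HER2 WT) and NCI-H1781 (HER2 G776delinsVC) cells were treated for 1.5 h at 37° C in 1% FBS medium with compound at 0.0005–1.1 μM. pHER2 Tyr1248 was measured by MSD on whole-cell lysates and normalized to total HER2 as % DMSO. EC50 came from a variable-slope sigmoidal fit.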

Assay [3] has as its target HER2YVMA (Homo sapiens, UniProt P04626, INS775YVMA). Briefly: Enzymatic assay HER2YVMA (method b). It counts as biochemical. Also noted: purchased Viva biotech, Shanghai, China custom purification. Particulars: [HER2YVMA]=5 nM, [ATP]=25 μM, [Peptide 22]=1 μM. A digest of the protocol:
as §1

T2 sequence (P04626 23-1255): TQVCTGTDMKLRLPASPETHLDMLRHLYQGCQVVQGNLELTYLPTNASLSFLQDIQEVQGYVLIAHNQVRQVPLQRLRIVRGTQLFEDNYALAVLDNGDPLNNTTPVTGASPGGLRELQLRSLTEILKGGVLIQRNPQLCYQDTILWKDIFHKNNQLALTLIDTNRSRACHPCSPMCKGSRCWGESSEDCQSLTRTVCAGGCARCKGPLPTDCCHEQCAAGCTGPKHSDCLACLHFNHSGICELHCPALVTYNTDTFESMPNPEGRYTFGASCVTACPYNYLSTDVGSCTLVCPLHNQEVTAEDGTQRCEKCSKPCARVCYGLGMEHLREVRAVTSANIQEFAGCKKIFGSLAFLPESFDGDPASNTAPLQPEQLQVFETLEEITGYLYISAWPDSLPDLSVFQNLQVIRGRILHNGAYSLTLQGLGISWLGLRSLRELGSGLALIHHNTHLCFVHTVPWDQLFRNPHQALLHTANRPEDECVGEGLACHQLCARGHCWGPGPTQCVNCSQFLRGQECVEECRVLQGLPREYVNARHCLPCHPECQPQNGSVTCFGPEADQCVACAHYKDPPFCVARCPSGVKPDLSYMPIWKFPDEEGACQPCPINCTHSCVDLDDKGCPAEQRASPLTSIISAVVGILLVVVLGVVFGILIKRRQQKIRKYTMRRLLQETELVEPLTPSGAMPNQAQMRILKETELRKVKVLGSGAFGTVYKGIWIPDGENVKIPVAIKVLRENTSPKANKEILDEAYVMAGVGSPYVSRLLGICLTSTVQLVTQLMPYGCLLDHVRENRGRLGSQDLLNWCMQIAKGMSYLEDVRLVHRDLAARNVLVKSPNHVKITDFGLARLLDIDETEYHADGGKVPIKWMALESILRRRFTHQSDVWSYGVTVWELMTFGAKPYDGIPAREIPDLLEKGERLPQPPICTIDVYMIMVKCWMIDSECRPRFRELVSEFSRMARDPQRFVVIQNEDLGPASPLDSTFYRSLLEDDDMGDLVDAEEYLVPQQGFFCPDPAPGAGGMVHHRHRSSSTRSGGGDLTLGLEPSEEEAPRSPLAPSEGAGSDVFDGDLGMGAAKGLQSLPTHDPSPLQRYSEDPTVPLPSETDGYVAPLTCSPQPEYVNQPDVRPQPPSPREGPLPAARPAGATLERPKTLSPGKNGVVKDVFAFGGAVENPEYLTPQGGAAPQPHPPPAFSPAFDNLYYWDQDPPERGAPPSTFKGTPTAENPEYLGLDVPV
T1 sequence (P04626 23-1255): as above
Chain of HER2YVMA (P04626 with tags, fused parts or gaps INS775YVMA): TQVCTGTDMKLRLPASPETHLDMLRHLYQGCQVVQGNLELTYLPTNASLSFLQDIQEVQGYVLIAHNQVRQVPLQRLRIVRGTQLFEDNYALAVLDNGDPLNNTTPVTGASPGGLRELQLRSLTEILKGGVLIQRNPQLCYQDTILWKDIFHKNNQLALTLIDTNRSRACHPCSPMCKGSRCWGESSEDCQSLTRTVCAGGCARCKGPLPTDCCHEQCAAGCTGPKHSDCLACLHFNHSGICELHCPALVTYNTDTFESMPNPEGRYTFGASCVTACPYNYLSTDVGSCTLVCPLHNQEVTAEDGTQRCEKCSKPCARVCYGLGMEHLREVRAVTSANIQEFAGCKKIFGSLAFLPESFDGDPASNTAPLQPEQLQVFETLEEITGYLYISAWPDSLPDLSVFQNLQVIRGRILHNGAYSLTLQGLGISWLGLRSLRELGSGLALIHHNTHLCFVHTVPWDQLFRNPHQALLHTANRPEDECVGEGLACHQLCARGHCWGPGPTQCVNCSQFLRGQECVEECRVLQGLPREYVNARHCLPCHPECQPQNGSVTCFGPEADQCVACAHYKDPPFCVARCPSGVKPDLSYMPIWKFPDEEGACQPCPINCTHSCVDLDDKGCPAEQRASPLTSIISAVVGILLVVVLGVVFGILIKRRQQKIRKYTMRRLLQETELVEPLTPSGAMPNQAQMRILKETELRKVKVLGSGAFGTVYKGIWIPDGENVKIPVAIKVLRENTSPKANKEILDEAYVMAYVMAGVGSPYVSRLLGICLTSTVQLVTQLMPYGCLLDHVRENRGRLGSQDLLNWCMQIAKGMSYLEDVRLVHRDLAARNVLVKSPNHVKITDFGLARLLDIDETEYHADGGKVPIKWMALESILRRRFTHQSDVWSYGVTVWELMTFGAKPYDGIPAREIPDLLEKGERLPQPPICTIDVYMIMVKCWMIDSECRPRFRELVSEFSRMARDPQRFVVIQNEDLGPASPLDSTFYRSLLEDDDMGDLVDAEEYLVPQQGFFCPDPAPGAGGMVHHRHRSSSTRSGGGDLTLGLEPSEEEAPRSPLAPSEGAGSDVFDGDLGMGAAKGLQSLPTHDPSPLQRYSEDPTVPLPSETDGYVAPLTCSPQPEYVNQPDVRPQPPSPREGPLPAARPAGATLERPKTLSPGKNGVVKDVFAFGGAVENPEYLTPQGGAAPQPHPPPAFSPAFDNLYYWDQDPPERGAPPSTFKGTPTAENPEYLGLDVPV

As to `Cc1cc(Nc2ncnc3sc4c(c23)CCN(C(=O)/C=C/CN(C)C)C4)ccc1Oc1ccc2nonc2c1` [Compound 104, (E)-1-(4-((4-(Benzo[c][1,2,5]oxadiazol-5-yloxy)-3-methylphenyl)amino)-5,6-dihydropyrido[4′,3′:4,5]thieno[2,3-d]pyrimidin-7(8H)-yl)-4-(dimethylamino)but-2-en-1-one], the 50% inhibitory concentration (IC50) in assay [1] and in assay [3] was less than 100 nM in each case. The compound further registered an EC50 in assay [2] of less than 100 nM.
As for `Cc1ccc(Oc2ccc(Nc3ncnc4sc5c(c34)CCN(C(=O)/C=C/CN3CC4(C3)CS(=O)(=O)C4)C5)cc2C)cn1` [Compound 57], the IC50 in assay [1] and in assay [3] was less than 100 nM in each case. The EC50 in assay [2] is less than 100 nM.
In the case of `Cc1ccc(Oc2ccc(Nc3ncnc4sc5c(c34)CCN(C(=O)/C=C/CNC3CC3)C5)cc2C)cn1` [Compound 40], the IC50 in assay [1] and in assay [3] was less than 100 nM in each case. Moreover, in assay [2], the EC50 is less than 100 nM.
Consider `Cc1ccc(Oc2ccc(Nc3ncnc4sc5c(c34)CCN(C(=O)/C=C/CNC3COC3)C5)cc2C)cn1` [Compound 38], for which the IC50 in assay [1] and in assay [3] was less than 100 nM each time. Moreover, in assay [2], the EC50 was less than 100 nM.
For the compound `Cc1ccc(Oc2ccc(Nc3ncnc4sc5c(c34)CCN(C(=O)/C=C/CN[C@H]3CC[C@H](OC4CC4)CC3)C5)cc2C)cn1` [Compound 68], the IC50 in assay [1] and in assay [3] was less than 100 nM in each case. The same compound gave an EC50 in assay [2] of less than 100 nM.
Regarding `Cc1cc(Nc2ncnc3sc4c(c23)CCN(C(=O)/C=C/CN(C)C)C4)ccc1Oc1ccc2cn[nH]c2c1` [Compound 23, (E)-1-(4-((4-((1H-indazol-6-yl)oxy)-3-methylphenyl)amino)-5,8-dihydropyrido[4′,3′:4,5]thieno[2,3-d]pyrimidin-7(6H)-yl)-4-(dimethylamino)but-2-en-1-one], the IC50 in assay [1] and in assay [3] was less than 100 nM throughout. This compound also displayed an EC50 in assay [2] of less than 100 nM.
Consider `Cc1cc(Nc2ncnc3sc4c(c23)CCN(C(=O)/C=C/CN2CC3CCC(C3)C2)C4)ccc1Oc1ccc2ncnn2c1` [Compound 20], for which the IC50 in assay [1] and in assay [3] was less than 100 nM each time. The concentration giving a half-maximal response (EC50) in assay [2] was less than 100 nM.
With `Cc1ccc(Oc2ccc(Nc3ncnc4sc5c(c34)CCN(C(=O)/C=C/CN(CCO)CCO)C5)cc2C)cn1` [Compound 37], the IC50 in assay [1] and in assay [3] was less than 100 nM each time. For the same compound, in assay [2], the EC50 is less than 100 nM.
`CN(C)C/C=C/C(=O)N1CCc2c(sc3ncnc(Nc4ccc(Oc5ccc6ncnn6c5)c(Cl)c4)c23)C1` [Compound 5, (E)-1-(4-((4-([1,2,4]triazolo[1,5-a]pyridin-6-yloxy)-3-chlorophenyl)amino)-5,8-dihydropyrido[4′,3′:4,5]thieno[2,3-d]pyrimidin-7(6H)-yl)-4-(dimethylamino)but-2-en-1-one]: the IC50 in assay [1] and in assay [3] was less than 100 nM in each case. In assay [2], this compound came in with an EC50 of less than 100 nM.
For the compound `O=C(/C=C/CN1CC2CCC(C2)C1)N1CCc2c(sc3ncnc(Nc4ccc(Oc5ccc6ncnn6c5)c(Cl)c4)c23)C1` [Compound 88], the IC50 in assay [1] and in assay [3] was less than 100 nM in each case. Also, the EC50 in assay [2] is less than 100 nM.
Consider `Cc1cc(Nc2ncnc3sc4c(c23)CN(C(=O)/C=C/CN(C)C)CC4)ccc1Oc1ccc2ncnn2c1` [Compound 103, (E)-1-(4-((4-([1,2,4]triazolo[1,5-a]pyridin-6-yloxy)-3-methylphenyl)amino)-7,8-dihydropyrido[3′,4′:4,5]thieno[2,3-d]pyrimidin-6(5H)-yl)-4-(dimethylamino)but-2-en-1-one], for which the IC50 is 100 to 1000 nM in assay [1] and less than 100 nM in assay [3]. This compound also registered an EC50 in assay [2] of less than 100 nM.
As to `COCCN1CCN(C/C=C/C(=O)N2CCc3c(sc4ncnc(Nc5ccc(Oc6ccc(C)nc6)c(C)c5)c34)C2)CC1` [Compound 59], the figures for the IC50 in assay [1] and in assay [3] were less than 100 nM and 100 to 1000 nM, respectively. Further, the EC50 in assay [2] is less than 100 nM.
As to `Cc1ccc(Oc2ccc(Nc3ncnc4sc5c(c34)CCN(C(=O)/C=C/CN3CCCOCC3)C5)cc2C)cn1` [Compound 42], the IC50 in assay [1] and in assay [3] was less than 100 nM throughout. The compound further returned an EC50 in assay [2] of less than 100 nM.
`CON(C)C/C=C/C(=O)N1CCc2c(sc3ncnc(Nc4ccc(Oc5ccc(C)nc5)c(C)c4)c23)C1` [Compound 56]: the IC50 in assay [1] and in assay [3] was 100 to 1000 nM each time. The compound also returned an EC50 in assay [2] of 350 to 1000 nM.
For the compound `C=C(CN1CCc2c(sc3ncnc(Nc4ccc(Oc5ccc(C)nc5)c(C)c4)c23)C1)C(=O)OCC` [Compound 86, Ethyl 2-((4-((3-methyl-4-((6-methylpyridin-3-yl)oxy)phenyl)amino)-5,8-dihydropyrido[4′,3′:4,5]thieno[2,3-d]pyrimidin-7(6H)-yl)methyl)acrylate], the IC50 in assay [1] is 100 to 1000 nM; in assay [3], 1000 to 10000 nM. This compound also had an EC50 in assay [2] of 100 to 350 nM.
Consider `Cc1ccc(Oc2ccc(Nc3ncnc4sc5c(c34)CCN(C(=O)/C=C/CN3CC4CC4C3)C5)cc2C)cn1` (stereo not drawn) [Compound 76], for which the IC50 in assay [1] and in assay [3] was less than 100 nM each time. This compound gave an EC50 in assay [2] of less than 100 nM.
In the case of `Cc1ccc(Oc2ccc(Nc3ncnc4sc5c(c34)CCN(C(=O)/C=C/CN3CCN4C(=O)CCC4C3)C5)cc2C)cn1` (stereo not drawn) [Compound 58], the IC50 in assay [1] and in assay [3] was 100 to 1000 nM each time. For the same compound, in assay [2], the EC50 lay in the range of 100 to 350 nM.
For the compound `O=C(/C=C/CN1CC2CC(C2)C1)N1CCc2c(sc3ncnc(Nc4ccc(Oc5ccc6ncnn6c5)c(Cl)c4)c23)C1` [Compound 85], the IC50 in assay [1] and in assay [3] was less than 100 nM each time. In assay [2], this compound displayed an EC50 of less than 100 nM.
